From patent US20240391876A1 (priority 2021, published 2024)

Key:
[1] = system: SARS-COV-2; assay: Cytopathic effect (CPE) assay against COVID-19 in Vero E6 cells, neutral red uptake; format: cell-based; conditions: 2 μg/mL quinacrine, 120 h p.i., at the 30% cytotoxic concentration
Procedure: The cytoprotective effect of quinacrine was determined by the cell viability, which is measured by the uptake of neutral red dye at A540.
In this study, the antiviral efficiency of quinacrine was evaluated against COVID-19 in vitro. Antiviral activity was evaluated using a cytopathic effect (CPE) assay, which determines the ability of the compound to prevent viral CPE in African green monkey kidney cells, Vero E6. Four dilutions of the test compound were evaluated, and the effective antiviral concentration was determined by regression analysis. The cytotoxicity of the test compound was determined in parallel by the neutral red cell cytotoxicity assay, a common method used to detect cell viability or drug cytotoxicity. CPE was determined by the uptake of neutral red dye. Quinacrine protects more than 80% of the infected cells from the cytopathic effects caused by COVID-19 at 2 μg/mL concentration (FIG. 8). The tissue distribution of quinacrine was investigated in a previous study by treating mice daily by oral gavage with 30 mg/kg of quinacrine (35% v/v ethanol in distilled water) dissolved in 100 μL total volume for 28 days.

[2] = system: Influenza A/California/07/2009 (H1N1); assay: Cytopathic effect (CPE) assay against Influenza A (H1N1), neutral red uptake; format: cell-based, Influenza A virus; conditions: 2 μg/mL quinacrine; three days incubation
[3] = system: RET G-quadruplex; assay: Taq DNA polymerase stop assay; format: biochemical; conditions: quinacrine 0, 0.5, 1.0 and 2.0 μM
Procedure: DNA polymerase stop assay was performed at increasing concentrations of each drug. Lanes M represents the di-deoxy sequencing G-reactions with the same template, which serves as the marker to locate the exact stop site. Bands P, S, and F represent the position of the free primer, stop products by G-quadruplex structures, and full-length products, respectively, on the gel.
The G4-stabilizing effect of quinacrine was validated with the RET G4 as a model G4 using a DNA polymerase stop assay and CD spectroscopic studies. In this assay, the ligand mediated stabilization of the G-quadruplex structure arising from the DNA template prevents the progression of the Taq DNA polymerase during primer extension.

[4] = system: RET G4; assay: CD spectroscopy and CD melting curve of RET G4; format: binding
Procedure: In both graphs in FIG. 6, at the 260 wavelength lines in descending order are 20° C., 30° C., 40° C., 50° C., 60° C., 70° C., 80° C., and 90° C.
Quinacrine was further investigated as to whether it stabilizes the RET G4 structure using circular dichroism (CD) spectroscopic analysis. […] Next, the thermal stability of the G-quadruplex structure was examined by monitoring the CD melting curve in the absence and presence of quinacrine (5 equivalent) at increasing temperatures.

[5] = system: COVID-19 RNA G4s (SG1 and SG2); assay: UV-Vis absorption spectra of quinacrine with RNA G4; format: binding, SARS-COV-2; conditions: SG1, SG2 at different concentrations; 10 mM Tris-HCl pH 7.6, 5 mM NaCl, 50 mM KCl
From the text: UV-Vis spectroscopy is the most common and convenient technique to study the interaction between small molecules with nucleic acids, including RNA G4. Molecules containing aromatic chromophore groups interact with RNA G4, and the molecular interaction can be studied based on the changes in the absorption spectra. The hypochromic effect is a spectral property for RNA G4-drug interactions that are closely related to the G4 structure. […] With the addition of G4 RNA, the intensity at both 350 nm and 450 nm bands decreased, inducing the hypochromicity at these wavelengths (FIG. 7). This can be attributed to the decrease in the number of chromophores in solution due to the interaction of quinacrine with RNA G4.

[6] = system: COVID-19; assay: Intravenous administration of quinacrine to a COVID-19 patient (Example 2); format: in vivo, human
Procedure: The following example describes treatment strategies for COVID-19 involving an intravenous administration of Quinacrine to a patient.
A person wakes up one morning with a fever of 102.4° F. and a tightness in their chest. They are an essential hospital worker and so believes they may have contracted COVID-19. Therefore, they call their primary care physician to determine their next steps. The primary care physician decides that they should be brought in for testing since they are at a higher risk for complications because the patient has severe asthma. The person gets a nose swab for the test. The doctor mentions that they will call the patient with the results as soon as possible. For now, the person is told to self-isolate and to monitor any changes in symptoms, calling if things get progressively worse. Quickly the person's condition deteriorates, and they begin to experience difficulty breathing and pressure in their chest. The doctor admits them to the ICU of the hospital because they require supplemental oxygen to maintain their oxygen levels. Shortly after being admitted to the ICU, the result of their test comes back positive for COVID-19. The ICU doctor gives the patient an intravenous injection of 200 mg initially every 6 hours for 5 doses, followed by 100 mg 3 times a day for 6 days. Alternatively, 100 mg is administered via IV infusion 3 times a day for 5 to 7 days. […]

[7] = system: COVID-19; assay: Oral administration of quinacrine to a COVID-19 patient (Example 3); format: in vivo, human
Procedure: The following example describes treatment strategies for COVID-19 involving an oral administration of Quinacrine.
Recently, a COVID-19 test for a person has come back positive. […] After a week at the hospital, the patient's symptoms show no signs of improvement. The doctors at the hospital prescribe to the patient an initial 200 mg dose orally every 6 hours for 5 doses, followed by 100 mg 3 times a day for 6 days. Alternatively, 100 mg is orally administered to the patient after meals 3 times a day for 5 to 7 days. After a week and a half of taking quinacrine daily, the patient's symptoms improve. […] The patient is released from the hospital and is told to stay in self-isolation for another week.

[8] = system: COVID-19 and influenza; assay: Oral administration of quinacrine for prevention of COVID-19 and influenza (Example 5); format: in vivo, human; conditions: 300 mg orally twice a day for a month
Procedure: The following example describes prevention strategies for COVID-19 and influenza involving an oral administration of Quinacrine.
A person wants to prevent getting sick during the upcoming winter season. Therefore, they schedule an appointment with their primary care physician to discuss their options. At the appointment, the doctor recommends taking a 300 mg pill of quinacrine orally twice a day for the next month.

[9] = mice; 30 mg/kg daily oral gavage; after 28 d of treatment; cited from earlier work

**Q.** Which results are given for `CCN(CC)CCCC(C)Nc1c2ccc(Cl)cc2nc2ccc(OC)cc12` (centres unmarked) [quinacrine]?
**A.** reduction of CPE due to SARS-COV-2 / protection of infected cells from cytopathic effects [1]: more than 80%; protection of infected cells from cytopathic effects caused by Influenza A (H1N1) [2]: more than 80%; amount of arrested product (stop product by G-quadruplex) [3]: dose-dependent increase; positive CD peak at 262 nm (parallel G-quadruplex structure) ([4]; in the presence of quinacrine): not affected; melting temperature (Tm) of the RET G4 structure ([4]; quinacrine 5 equivalent, increasing temperatures): significantly increased; absorbance intensity at 350 nm and 450 nm bands on addition of G4 RNA [5]: decreased; side effects ([6]; intravenous quinacrine, patient): No side effects; clinical outcome ([6]; person, intravenous 200 mg every 6 hours for 5 doses, then 100 mg 3 times a day for 6 days, after a week): tests negative for COVID-19; side effects ([7]; oral quinacrine, patient): No side effects; clinical outcome ([7]; person, oral 200 mg every 6 hours for 5 doses, then 100 mg 3 times a day for 6 days): tests negative for COVID-19; side effects [8]: No side effects; prevention outcome ([8]; person): without getting sick; mean concentration in whole blood [9]: 470 ng/mL; mean lung concentration [9]: 2600 ng/mL
